Experiment [1] concerns the target T1, recombinant human cannabinoid receptor CB2 (Homo sapiens, UniProt P34972).
T1 construct: (cDNA clone) CNR0200000
Briefly: Cannabinoid receptor radioligand binding assay, [3H]-CP 55,940 displacement, hCB2. The method in brief:
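Membranes from hCB2-transfected cells, prepared by 1000×g then 40,000×g centrifugation, resuspended in 20 mM HEPES pH 7.4, 5 mM MgCl2, 1 mM EDTA, 10% sucrose.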

The target in another experiment is T2, human CB1 receptors (Homo sapiens, UniProt P21554).
T2 construct: (cDNA clone) CNR01L000
Briefly: cAMP assay in HEK-293 cells, hCB1 agonist. Format: cell-based. The following applies: inhibition of forskolin-stimulated cAMP, HEK-293 cells; for EC50: read-out: hCB1 EC50 (cAMP ag). The method in brief: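 Stable hCB1 HEK-293 cells suspended in HBSS with 10 mM HEPES and 0.1% fatty acid-free BSA, incubated 30 min at 37° C. with compound plus forskolin (90 uM in the 3× compound solution). Lysed cAMP measured by enzyme-fragment kit; EC50 = 50% inhibition of forskolin-stimulated cAMP (forskolin maximum = 100%), sigmoidal fit.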
(Cyclic AMP is a second messenger, typically raised through Gs and lowered through Gi signalling.)

Each structure is given as a SMILES string.

T2 sequence (P21554 whole entry): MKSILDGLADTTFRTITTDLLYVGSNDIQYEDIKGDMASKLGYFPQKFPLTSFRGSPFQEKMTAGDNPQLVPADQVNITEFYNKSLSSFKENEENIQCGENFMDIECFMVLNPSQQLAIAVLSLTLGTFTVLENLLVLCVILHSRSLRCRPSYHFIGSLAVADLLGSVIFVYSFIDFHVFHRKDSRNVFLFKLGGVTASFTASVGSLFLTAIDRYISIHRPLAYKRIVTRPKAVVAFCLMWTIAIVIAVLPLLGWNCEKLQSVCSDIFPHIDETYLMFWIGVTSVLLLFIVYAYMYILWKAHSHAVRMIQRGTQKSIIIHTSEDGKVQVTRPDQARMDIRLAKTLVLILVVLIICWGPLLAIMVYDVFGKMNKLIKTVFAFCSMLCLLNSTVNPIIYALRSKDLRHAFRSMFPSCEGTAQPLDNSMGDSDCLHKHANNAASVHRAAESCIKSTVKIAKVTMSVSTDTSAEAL
T1 sequence (P34972 whole entry): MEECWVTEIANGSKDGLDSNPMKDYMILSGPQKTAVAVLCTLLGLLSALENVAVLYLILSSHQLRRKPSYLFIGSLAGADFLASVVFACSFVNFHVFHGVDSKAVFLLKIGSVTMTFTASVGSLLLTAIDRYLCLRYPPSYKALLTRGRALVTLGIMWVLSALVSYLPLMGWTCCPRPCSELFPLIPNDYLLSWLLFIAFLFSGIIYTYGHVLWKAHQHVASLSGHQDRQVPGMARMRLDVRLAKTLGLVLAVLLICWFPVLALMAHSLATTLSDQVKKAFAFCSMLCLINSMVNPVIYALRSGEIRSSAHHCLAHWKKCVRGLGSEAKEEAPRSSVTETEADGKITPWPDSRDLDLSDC

By IC50 is commonly meant the point on the concentration scale where inhibition reaches its midpoint. For `Cc1ccc(C(=O)c2cc3cc(C)n(CCN4CCOCC4)c3s2)c(F)c1` [Compound 80, (2-Fluoro-4-methylphenyl)(5-methyl-6-(2-morpholinoethyl)-6H-thieno[2,3-b]pyrrol-2-yl)methanone], in experiment [1], the IC50 was in the range of 0.1 to 1 µM. Moreover, the “hCB1 EC50 (cAMP ag, nM)” value at human CB1 receptors is reported as “NS (NS means “Not Significant,” which means less than 30% agonist activity when compared to the positive control.)”.

For orientation: EC50 means the concentration needed to bring the measured effect to its halfway point. For `COc1ccc(C(=O)c2cc3cc(C)n(CCN4CCCC4)c3s2)cc1` [Compound 83, (4-Methoxyphenyl)(5-methyl-6-(2-(pyrrolidin-1-yl)ethyl)-6H-thieno[2,3-b]pyrrol-2-yl)methanone], the IC50 in experiment [1] fell in the range of 0.1 to 1 µM. Besides, at human CB1 receptors, the EC50 is 1 to 10 µM.

In the case of `COc1ccc(C(=O)c2cc3cc(C)n(CCN4CCOCC4)c3s2)c(C)c1` [Compound 88, (4-Methoxy-2-methylphenyl)(5-methyl-6-(2-morpholinoethyl)-6H-thieno[2,3-b]pyrrol-2-yl)methanone], the IC50 in experiment [1] was below 0.1 µM. Further, the concentration for a half-maximal effect (EC50) at human CB1 receptors was in the range of 0.1 to 1 µM.

As for `CCOc1ccc(C(=O)c2cc3cc(C)n(CCN4CCOCC4)c3s2)c(F)c1` [Compound 89, (4-Ethoxy-2-fluorophenyl)(5-methyl-6-(2-morpholinoethyl)-6H-thieno[2,3-b]pyrrol-2-yl)methanone], the IC50 in experiment [1] lay within 0.1 to 1 µM. On human CB1 receptors, the EC50 is 1 to 10 µM.

Consider `COc1ccc(C(=O)c2cc3cc(C)n(CCN4CCCCC4)c3s2)c(Cl)c1` [Compound 90, (2-Chloro-4-methoxyphenyl)(5-methyl-6-(2-(piperidin-1-yl)ethyl)-6H-thieno[2,3-b]pyrrol-2-yl)methanone], for which the IC50 in experiment [1] was below 0.1 µM. The EC50 on human CB1 receptors was 0.1 to 1 µM.

Turning to `COc1ccc(C(=O)c2cc3cc(C)n(CCN4CCCC4)c3s2)c(F)c1` [Compound 92, (2-Fluoro-4-methoxyphenyl)(5-methyl-6-(2-(pyrrolidin-1-yl)ethyl)-6H-thieno[2,3-b]pyrrol-2-yl)methanone], the half-inhibitory concentration (IC50) in experiment [1] is 0.1 to 1 µM. The concentration for a half-maximal effect (EC50) at human CB1 receptors lay within 1 to 10 µM.

On to `COc1ccc(C(=O)c2cc3cc(C)n(CCN4CCCC4)c3s2)c(Cl)c1` [Compound 93, (2-Chloro-4-methoxyphenyl)(5-methyl-6-(2-(pyrrolidin-1-yl)ethyl)-6H-thieno[2,3-b]pyrrol-2-yl)methanone], for which, in experiment [1], the IC50 was below 0.1 µM. Further, the EC50 on human CB1 receptors lay in the range of 1 to 10 µM.

Turning to `COc1ccc(C(=O)c2cc3cc(C)n(CCCNS(C)(=O)=O)c3s2)c(C)c1` [Compound 96, N-(3-(2-(4-Methoxy-2-methylbenzoyl)-5-methyl-6H-thieno[2,3-b]pyrrol-6-yl)propyl)methanesulfonamide], in experiment [1], the IC50 is below 0.1 µM. Moreover, on human CB1 receptors, the “hCB1 EC50 (cAMP ag, nM)” value is “NS (NS means “Not Significant,” which means less than 30% agonist activity when compared to the positive control.)”.

In the case of `COc1ccc(C(=O)c2cc3cc(C)n(CCN4CCCCC4)c3s2)c(F)c1` [Compound 98, (2-Fluoro-4-methoxyphenyl)(5-methyl-6-(2-(piperidin-1-yl)ethyl)-6H-thieno[2,3-b]pyrrol-2-yl)methanone], in experiment [1], the IC50 was below 0.1 µM. At human CB1 receptors, the “hCB1 EC50 (cAMP ag, nM)” value is given as “NS (NS means “Not Significant,” which means less than 30% agonist activity when compared to the positive control.)”.

As to `COc1ccc(C(=O)c2cc3cc(C)n(CCN4CCCCC4)c3s2)c(O)c1` [Compound 99, (2-Hydroxy-4-methoxyphenyl)(5-methyl-6-(2-(piperidin-1-yl)ethyl)-6H-thieno[2,3-b]pyrrol-2-yl)methanone], the IC50 in experiment [1] lay within 0.1 to 1 µM. For the same compound, the “hCB1 EC50 (cAMP ag, nM)” value at human CB1 receptors is reported as “NS (NS means “Not Significant,” which means less than 30% agonist activity when compared to the positive control.)”.

Regarding `COc1ccc(C(O)c2cc3cc(C)n(CCN4CCOCC4)c3s2)cc1` (centres unmarked) [Compound 100, (4-Methoxyphenyl)(5-methyl-6-(2-morpholinoethyl)-6H-thieno[2,3-b]pyrrol-2-yl)methanol], the half-inhibitory concentration (IC50) in experiment [1] was 0.1 to 1 µM. Further, the “hCB1 EC50 (cAMP ag, nM)” value on human CB1 receptors is recorded as “NS (NS means “Not Significant,” which means less than 30% agonist activity when compared to the positive control.)”.

In the case of `COc1ccc(C(C)(O)c2cc3cc(C)n(CCN4CCOCC4)c3s2)cc1` (centres unmarked) [Compound 101, 1-(4-methoxyphenyl)-1-(5-methyl-6-(2-morpholinoethyl)-6H-thieno[2,3-b]pyrrol-2-yl)ethanol], the IC50 in experiment [1] fell in the range of 0.1 to 1 µM. For the same compound, the “hCB1 EC50 (cAMP ag, nM)” value on human CB1 receptors was “NS (NS means “Not Significant,” which means less than 30% agonist activity when compared to the positive control.)”.

As to `COc1ccc(C(=O)c2cc3cc(C)n(CCCCNS(C)(=O)=O)c3s2)cc1` [Compound 102, N-(4-(2-(4-Methoxybenzoyl)-5-methyl-6H-thieno[2,3-b]pyrrol-6-yl)butyl)methanesulfonamide], the IC50 in experiment [1] is below 0.1 µM. For the same compound, the “hCB1 EC50 (cAMP ag, nM)” value at human CB1 receptors is “NS (NS means “Not Significant,” which means less than 30% agonist activity when compared to the positive control.)”.

Consider `COc1ccc(Cn2c(C)cc3cc(C(=O)c4ccc(OC)cc4)sc32)cc1` [Compound 103, (6-(4-Methoxybenzyl)-5-methyl-6H-thieno[2,3-b]pyrrol-2-yl)(4-methoxyphenyl)methanone], for which, in experiment [1], the IC50 lay in the range of 0.1 to 1 µM. In addition, on human CB1 receptors, the “hCB1 EC50 (cAMP ag, nM)” value is recorded as “NS (NS means “Not Significant,” which means less than 30% agonist activity when compared to the positive control.)”.

Regarding `COc1ccc(C(=S)c2cc3cc(C)n(CCN4CCOCC4)c3s2)cc1` [Compound 104, (4-methoxyphenyl)(5-methyl-6-(2-morpholinoethyl)-6H-thieno[2,3-b]pyrrol-2-yl)methanethione], in experiment [1], the IC50 lay within 1 to 10 µM. In addition, the “hCB1 EC50 (cAMP ag, nM)” value at human CB1 receptors is recorded as “NS (NS means “Not Significant,” which means less than 30% agonist activity when compared to the positive control.)”.

With `COc1ccc(C(=O)c2cc3cc(C)n(CCCNS(N)(=O)=O)c3s2)cc1` [Compound 105], the IC50 in experiment [1] was in the range of 1 to 10 µM. Also, the “hCB1 EC50 (cAMP ag, nM)” value at human CB1 receptors was “NS (NS means “Not Significant,” which means less than 30% agonist activity when compared to the positive control.)”.

`Cc1cc2cc(C(=O)c3ccc4c(c3)OCO4)sc2n1CCN1CCOCC1` [Compound 106, Benzo[d][1,3]dioxol-5-yl(5-methyl-6-(2-morpholinoethyl)-6H-thieno[2,3-b]pyrrol-2-yl)methanone]: the concentration for half-maximal inhibition (IC50) in experiment [1] was in the range of 0.1 to 1 µM. In addition, the “hCB1 EC50 (cAMP ag, nM)” value on human CB1 receptors was “NS (NS means “Not Significant,” which means less than 30% agonist activity when compared to the positive control.)”.

As for `COc1ccc(C(=O)c2cc3cc(C)n(CCCNC(C)(C)C)c3s2)cc1` [Compound 108, (6-(3-(tert-Butylamino)propyl)-5-methyl-6H-thieno[2,3-b]pyrrol-2-yl)(4-methoxyphenyl)methanone], in experiment [1], the half-maximal inhibitory concentration (IC50) was above 10 µM. For the same compound, the “hCB1 EC50 (cAMP ag, nM)” value on human CB1 receptors is given as “NS (NS means “Not Significant,” which means less than 30% agonist activity when compared to the positive control.)”.

Regarding `COc1ccc(C(=O)c2cc3cc(C)n(CCCNS(C)(=O)=O)c3s2)cn1` [Compound 109, N-(3-(2-(6-Methoxynicotinoyl)-5-methyl-6H-thieno[2,3-b]pyrrol-6-yl)propyl)methanesulfonamide], in experiment [1], the half-maximal inhibitory concentration (IC50) was 0.1 to 1 µM. Moreover, the “hCB1 EC50 (cAMP ag, nM)” value on human CB1 receptors is “NS (NS means “Not Significant,” which means less than 30% agonist activity when compared to the positive control.)”.

With `COc1ccc(C(=O)c2cc3cc(C)n(CCN4CCSCC4)c3s2)cc1` [Compound 110, (4-Methoxyphenyl)(5-methyl-6-(2-thiomorpholinoethyl)-6H-thieno[2,3-b]pyrrol-2-yl)methanone], the IC50 in experiment [1] is below 0.1 µM. Further, the EC50 at human CB1 receptors is 1 to 10 µM.

Turning to `Cc1cc2cc(C(=O)c3ccc(OC(C)C)cc3)sc2n1CCN1CCOCC1` [Compound 111, (4-Isopropoxyphenyl)(5-methyl-6-(2-morpholinoethyl)-6H-thieno[2,3-b]pyrrol-2-yl)methanone], the IC50 in experiment [1] fell in the range of 0.1 to 1 µM. Besides, the “hCB1 EC50 (cAMP ag, nM)” value on human CB1 receptors is “NS (NS means “Not Significant,” which means less than 30% agonist activity when compared to the positive control.)”.

Regarding `COc1ccc(C(=O)c2cc3cc(C)n(Cc4ccncc4)c3s2)cc1` [Compound 112, (4-Methoxyphenyl)(5-methyl-6-(pyridin-4-ylmethyl)-6H-thieno[2,3-b]pyrrol-2-yl)methanone], the concentration for half-maximal inhibition (IC50) in experiment [1] is 0.1 to 1 µM. In addition, the “hCB1 EC50 (cAMP ag, nM)” value at human CB1 receptors is listed as “NS (NS means “Not Significant,” which means less than 30% agonist activity when compared to the positive control.)”.

For `COc1ccc(C(=O)c2cc3cc(C)n(S(=O)(=O)N(C)C)c3s2)cn1` [Compound 113, 2-(6-Methoxynicotinoyl)-N,N,5-trimethyl-6H-thieno[2,3-b]pyrrole-6-sulfonamide], the 50% inhibitory concentration (IC50) in experiment [1] is below 0.1 µM. Moreover, at human CB1 receptors, the “hCB1 EC50 (cAMP ag, nM)” value is “NS (NS means “Not Significant,” which means less than 30% agonist activity when compared to the positive control.)”.

`COc1ccc(C(=O)c2cc3cc(C)n(Cc4ccccc4)c3s2)c(Cl)c1` [Compound 114, (6-Benzyl-5-methyl-6H-thieno[2,3-b]pyrrol-2-yl)(2-chloro-4-methoxyphenyl)methanone]: the IC50 in experiment [1] was below 0.1 µM. Moreover, the EC50 on human CB1 receptors was in the range of 1 to 10 µM.

In the case of `CSc1ccc(C(=O)c2cc3cc(C)n(CCN4CCOCC4)c3s2)cc1` [Compound 115, (5-Methyl-6-(2-morpholinoethyl)-6H-thieno[2,3-b]pyrrol-2-yl)(4-(methylthio)phenyl)methanone], the half-inhibitory concentration (IC50) in experiment [1] was 0.1 to 1 µM. The “hCB1 EC50 (cAMP ag, nM)” value at human CB1 receptors is reported as “NS (NS means “Not Significant,” which means less than 30% agonist activity when compared to the positive control.)”.

The values are drawn from patent US20130029970A1 (priority 2009, published 2013).
